In general, IC50 refers to the concentration that inhibits the measured activity by half.

SMILES strings stand for the structures.

Experimental findings from patent US6608082B1, “Treatment of erectile dysfunction using isoquinoline compound melanocortin receptor ligands” (Lion Bioscience AG, priority 1998, dated 2003) are described below.

In experiment [1] the target is T1, MCR-4 (Homo sapiens, UniProt P32245).
T1 construct: expressed in transfected cells; host or cells: HEK 293
In words: Melanocortin receptor binding assay, competition with 125I-HP 467, HEK 293 cells expressing hMCR-4. As to conditions: inhibition of binding of 125I-HP 467, HEK 293 cells expressing MCR-4, TRG 2414 library; for IC50: read-out: MC-4 IC50. Summed up:
(§1)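 Intact-cell competition binding, 2.5 hr at 37 °C, in PBS/10% calf serum/1 mM CaCl2; hMCR-4 cells at 4×10^3 per tube, hMCR-1 cells at 2×10^4 per tube. Filtration on BSA/CaCl2-soaked GF/B, cold 50 mM Tris pH 7.4 washes, scintillation count.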

The target of experiment [2] is T2, MCR-1 (Homo sapiens, UniProt Q01726).
T2 construct: expressed in transfected cells; host or cells: HEK 293
In words: Melanocortin receptor binding assay, competition with 125I-HP 467, HEK 293 cells expressing hMCR-1. As to conditions: inhibition of binding of 125I-HP 467, HEK 293 cells expressing MCR-1, TRG 2414 library; for IC50: read-out: MC-1 IC50. The method in brief: as §1

T1 sequence (P32245 whole entry): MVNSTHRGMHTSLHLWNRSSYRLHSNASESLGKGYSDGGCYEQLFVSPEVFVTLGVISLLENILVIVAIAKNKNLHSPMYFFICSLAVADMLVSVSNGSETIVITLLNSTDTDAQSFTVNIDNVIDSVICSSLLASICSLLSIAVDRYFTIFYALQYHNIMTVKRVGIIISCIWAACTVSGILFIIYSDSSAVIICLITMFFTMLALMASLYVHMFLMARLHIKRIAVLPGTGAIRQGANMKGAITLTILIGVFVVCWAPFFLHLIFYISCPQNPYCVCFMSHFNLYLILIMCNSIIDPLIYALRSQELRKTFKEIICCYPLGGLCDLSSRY
T2 sequence (Q01726 whole entry): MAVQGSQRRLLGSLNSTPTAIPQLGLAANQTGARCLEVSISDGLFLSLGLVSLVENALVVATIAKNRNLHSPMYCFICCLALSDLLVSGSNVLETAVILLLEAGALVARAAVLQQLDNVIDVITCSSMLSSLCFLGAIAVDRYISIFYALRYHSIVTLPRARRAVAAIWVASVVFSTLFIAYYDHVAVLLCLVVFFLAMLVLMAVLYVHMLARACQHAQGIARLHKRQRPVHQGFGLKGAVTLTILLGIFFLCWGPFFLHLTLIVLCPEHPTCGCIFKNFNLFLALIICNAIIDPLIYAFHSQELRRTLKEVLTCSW

For `CC(C)Cc1ccc(C(C)CNC(CN)CCCCN2Cc3ccccc3C(CNCc3ccccc3)C2c2ccc(Cl)cc2Cl)cc1` (centres unmarked) [TRG 2414-32], the IC50 in experiment [1] was found to be 32.1 µM; in experiment [2], 28.3 µM.

`NCC(CCCCN1Cc2ccccc2C(CNC2CCCCCC2)C1c1ccc(Cl)cc1Cl)NCCc1ccccc1` (centres unmarked) [TRG 2414-34]: the IC50 was 4.42 µM in experiment [1] and 3.55 µM in experiment [2].

With `NCC(CCCCN1Cc2ccccc2C(CNC2CCCCCC2)C1c1ccc(Cl)cc1Cl)NCc1ccccc1` (centres unmarked) [TRG 2414-35], the IC50 in experiment [1] amounted to 5.67 µM; in experiment [2] it was 2.17 µM.

Consider `CC(C)Cc1ccc(C(C)CNC(CN)CCCCN2Cc3ccccc3C(CNC3CCCCCC3)C2c2ccc(Cl)cc2Cl)cc1` (centres unmarked) [TRG 2414-36], for which the IC50 was 9.92 µM in experiment [1] and 8.65 µM in experiment [2].

`NCC(CCCCN1Cc2ccccc2C(CNC2CCCCC2)C1c1ccc(Cl)cc1Cl)NCCc1ccccc1` (centres unmarked) [TRG 2414-38]: the IC50 in experiment [1] turned out to be 3.96 µM; in experiment [2], 1.92 µM.

Take `CC(C)Cc1ccc(C(C)CNC(CN)CCCCN2Cc3ccccc3C(CNC3CCCCC3)C2c2ccc(Cl)cc2Cl)cc1` (centres unmarked) [TRG 2414-40]: the IC50 in experiment [1] is 17.5 µM; in experiment [2] it was 8.64 µM.

Turning to `NCC(N)CCCCN1Cc2ccccc2C(CNCc2ccccc2C(F)(F)F)C1c1cc(C(F)(F)F)cc(C(F)(F)F)c1` (centres unmarked) [TRG 2414-41], the IC50 was found to be 15.6 µM in experiment [1] and 34.2 µM in experiment [2].

With `NCC(CCCCN1Cc2ccccc2C(CNCc2ccccc2C(F)(F)F)C1c1cc(C(F)(F)F)cc(C(F)(F)F)c1)NCCc1ccccc1` (centres unmarked) [TRG 2414-42], the IC50 is 30.2 µM in experiment [1] and 32.8 µM in experiment [2].

For `NCC(CCCCN1Cc2ccccc2C(CNCc2ccccc2C(F)(F)F)C1c1cc(C(F)(F)F)cc(C(F)(F)F)c1)NCc1ccccc1` (centres unmarked) [TRG 2414-43], the IC50 worked out at 42 µM in experiment [1] and 56.9 µM in experiment [2].

For `CC(C)Cc1ccc(C(C)CNC(CN)CCCCN2Cc3ccccc3C(CNCc3ccccc3C(F)(F)F)C2c2cc(C(F)(F)F)cc(C(F)(F)F)c2)cc1` (centres unmarked) [TRG 2414-44], the “MC-4 IC50” value in experiment [1] is reported as “no fit”. Moreover, the “MC-1 IC50” value in experiment [2] is listed as “no fit”.

Take `CCOc1ccccc1CNCC1c2ccccc2CN(CCCCC(N)CN)C1c1cc(C(F)(F)F)cc(C(F)(F)F)c1` (centres unmarked) [TRG 2414-45]: the IC50 in experiment [1] stood at 0.92 µM; in experiment [2] it was 6.34 µM.

As to `CCOc1ccccc1CNCC1c2ccccc2CN(CCCCC(CN)NCCc2ccccc2)C1c1cc(C(F)(F)F)cc(C(F)(F)F)c1` (centres unmarked) [TRG 2414-46], the IC50 in experiment [1] stood at 4.25 µM; in experiment [2], 6.54 µM.

As for `CCOc1ccccc1CNCC1c2ccccc2CN(CCCCC(CN)NCc2ccccc2)C1c1cc(C(F)(F)F)cc(C(F)(F)F)c1` (centres unmarked) [TRG 2414-47], the IC50 in experiment [1] came to 7.51 µM; in experiment [2], 7.74 µM.

As for `CCOc1ccccc1CNCC1c2ccccc2CN(CCCCC(CN)NCC(C)c2ccc(CC(C)C)cc2)C1c1cc(C(F)(F)F)cc(C(F)(F)F)c1` (centres unmarked) [TRG 2414-48], the IC50 in experiment [1] stood at 38.8 µM; in experiment [2] it was 33.5 µM.

Consider `COc1ccccc1CCNCC1c2ccccc2CN(CCCC[C@H](N)CN)C1c1cc(C(F)(F)F)cc(C(F)(F)F)c1` (some centres unmarked) [TRG 2414-49], for which the IC50 in experiment [1] worked out at 0.32 µM; in experiment [2], 3.77 µM.

With `COc1ccccc1CCNCC1c2ccccc2CN(CCCCC(CN)NCCc2ccccc2)C1c1cc(C(F)(F)F)cc(C(F)(F)F)c1` (centres unmarked) [TRG 2414-50], the IC50 in experiment [1] worked out at 4.94 µM; in experiment [2] it was 8.09 µM.

In the case of `COc1ccccc1CCNCC1c2ccccc2CN(CCCCC(CN)NCc2ccccc2)C1c1cc(C(F)(F)F)cc(C(F)(F)F)c1` (centres unmarked) [TRG 2414-51], the IC50 came to 2.16 µM in experiment [1] and 6.45 µM in experiment [2].

For the compound `NCC(N)CCCCN1Cc2ccccc2C(CNCCc2cccc(Cl)c2)C1c1cc(C(F)(F)F)cc(C(F)(F)F)c1` (centres unmarked) [TRG 2414-53], the IC50 in experiment [1] came out at 0.64 µM; in experiment [2], 9.78 µM.

For `NCC(CCCCN1Cc2ccccc2C(CNCCc2cccc(Cl)c2)C1c1cc(C(F)(F)F)cc(C(F)(F)F)c1)NCCc1ccccc1` (centres unmarked) [TRG 2414-54], the IC50 in experiment [1] worked out at 3.06 µM; in experiment [2], 9.81 µM.
